Five molecules from the Kinase Knowledgebase extract (Sharma et al. 2016) can be followed below.

Among the targets are PIK3CG (human) (UniProt P48736); PIK3CD (Human) (UniProt O00329); PIK3CB (Human) (UniProt P42338).
Assay in all cases: Enzyme Assay

A value given as a limit tells only on which side of the number the result lay.

Sequence of PIK3CB (Human) (P42338 whole entry, looked up): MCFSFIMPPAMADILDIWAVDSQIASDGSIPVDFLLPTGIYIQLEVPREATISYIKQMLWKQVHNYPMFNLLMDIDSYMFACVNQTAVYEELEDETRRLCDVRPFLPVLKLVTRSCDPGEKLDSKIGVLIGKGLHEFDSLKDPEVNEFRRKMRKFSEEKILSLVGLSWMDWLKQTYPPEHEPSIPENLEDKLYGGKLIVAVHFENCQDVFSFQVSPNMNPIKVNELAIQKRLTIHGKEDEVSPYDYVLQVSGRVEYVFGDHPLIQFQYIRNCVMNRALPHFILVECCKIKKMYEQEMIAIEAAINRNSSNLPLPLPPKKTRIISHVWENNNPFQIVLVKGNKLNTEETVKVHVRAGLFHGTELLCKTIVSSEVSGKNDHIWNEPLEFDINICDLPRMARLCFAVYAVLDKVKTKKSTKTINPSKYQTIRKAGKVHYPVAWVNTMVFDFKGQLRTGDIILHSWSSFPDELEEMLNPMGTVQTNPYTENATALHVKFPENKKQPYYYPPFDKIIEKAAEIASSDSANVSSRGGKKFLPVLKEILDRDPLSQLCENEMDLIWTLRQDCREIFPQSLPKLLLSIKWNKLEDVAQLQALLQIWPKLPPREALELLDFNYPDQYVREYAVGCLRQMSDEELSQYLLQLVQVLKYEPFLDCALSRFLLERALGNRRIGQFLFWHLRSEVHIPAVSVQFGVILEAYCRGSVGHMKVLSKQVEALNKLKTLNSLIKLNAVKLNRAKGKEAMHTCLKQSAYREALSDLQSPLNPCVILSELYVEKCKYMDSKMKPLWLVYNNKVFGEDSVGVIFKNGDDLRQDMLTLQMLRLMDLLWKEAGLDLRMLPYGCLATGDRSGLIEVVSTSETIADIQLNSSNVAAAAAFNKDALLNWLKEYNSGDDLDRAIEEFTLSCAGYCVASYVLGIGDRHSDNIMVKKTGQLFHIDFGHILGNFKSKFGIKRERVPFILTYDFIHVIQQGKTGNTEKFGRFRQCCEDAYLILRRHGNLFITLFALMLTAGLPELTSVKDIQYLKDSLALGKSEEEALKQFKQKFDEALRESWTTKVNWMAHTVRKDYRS
Sequence of PIK3CD (Human) (O00329 whole entry, looked up): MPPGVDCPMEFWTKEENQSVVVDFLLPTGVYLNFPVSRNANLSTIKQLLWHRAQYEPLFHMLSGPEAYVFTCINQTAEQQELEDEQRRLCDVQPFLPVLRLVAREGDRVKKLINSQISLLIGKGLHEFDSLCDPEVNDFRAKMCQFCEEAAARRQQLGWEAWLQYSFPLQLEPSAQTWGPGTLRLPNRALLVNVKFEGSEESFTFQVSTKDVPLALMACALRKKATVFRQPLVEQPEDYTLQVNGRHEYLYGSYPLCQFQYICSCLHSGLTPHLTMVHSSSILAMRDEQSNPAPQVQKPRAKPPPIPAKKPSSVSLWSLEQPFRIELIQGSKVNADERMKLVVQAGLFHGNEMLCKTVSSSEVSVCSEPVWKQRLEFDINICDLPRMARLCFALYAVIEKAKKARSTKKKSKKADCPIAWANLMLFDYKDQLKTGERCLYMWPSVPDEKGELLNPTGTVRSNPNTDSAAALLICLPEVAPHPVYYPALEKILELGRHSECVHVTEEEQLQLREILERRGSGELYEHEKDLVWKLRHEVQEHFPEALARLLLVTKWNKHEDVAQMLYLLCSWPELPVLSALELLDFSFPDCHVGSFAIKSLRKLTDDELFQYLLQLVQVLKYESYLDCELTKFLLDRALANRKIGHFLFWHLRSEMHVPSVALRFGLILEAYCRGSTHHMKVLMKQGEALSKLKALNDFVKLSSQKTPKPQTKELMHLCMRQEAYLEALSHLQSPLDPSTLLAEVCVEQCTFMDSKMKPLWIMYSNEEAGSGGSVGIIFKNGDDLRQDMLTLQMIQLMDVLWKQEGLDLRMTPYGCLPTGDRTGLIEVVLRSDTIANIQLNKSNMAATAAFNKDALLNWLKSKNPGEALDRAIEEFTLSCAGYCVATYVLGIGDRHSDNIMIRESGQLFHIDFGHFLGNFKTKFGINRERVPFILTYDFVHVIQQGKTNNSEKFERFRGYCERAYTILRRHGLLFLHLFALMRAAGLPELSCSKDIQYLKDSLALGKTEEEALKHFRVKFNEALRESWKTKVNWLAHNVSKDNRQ
Sequence of PIK3CG (human) (P48736 whole entry, looked up): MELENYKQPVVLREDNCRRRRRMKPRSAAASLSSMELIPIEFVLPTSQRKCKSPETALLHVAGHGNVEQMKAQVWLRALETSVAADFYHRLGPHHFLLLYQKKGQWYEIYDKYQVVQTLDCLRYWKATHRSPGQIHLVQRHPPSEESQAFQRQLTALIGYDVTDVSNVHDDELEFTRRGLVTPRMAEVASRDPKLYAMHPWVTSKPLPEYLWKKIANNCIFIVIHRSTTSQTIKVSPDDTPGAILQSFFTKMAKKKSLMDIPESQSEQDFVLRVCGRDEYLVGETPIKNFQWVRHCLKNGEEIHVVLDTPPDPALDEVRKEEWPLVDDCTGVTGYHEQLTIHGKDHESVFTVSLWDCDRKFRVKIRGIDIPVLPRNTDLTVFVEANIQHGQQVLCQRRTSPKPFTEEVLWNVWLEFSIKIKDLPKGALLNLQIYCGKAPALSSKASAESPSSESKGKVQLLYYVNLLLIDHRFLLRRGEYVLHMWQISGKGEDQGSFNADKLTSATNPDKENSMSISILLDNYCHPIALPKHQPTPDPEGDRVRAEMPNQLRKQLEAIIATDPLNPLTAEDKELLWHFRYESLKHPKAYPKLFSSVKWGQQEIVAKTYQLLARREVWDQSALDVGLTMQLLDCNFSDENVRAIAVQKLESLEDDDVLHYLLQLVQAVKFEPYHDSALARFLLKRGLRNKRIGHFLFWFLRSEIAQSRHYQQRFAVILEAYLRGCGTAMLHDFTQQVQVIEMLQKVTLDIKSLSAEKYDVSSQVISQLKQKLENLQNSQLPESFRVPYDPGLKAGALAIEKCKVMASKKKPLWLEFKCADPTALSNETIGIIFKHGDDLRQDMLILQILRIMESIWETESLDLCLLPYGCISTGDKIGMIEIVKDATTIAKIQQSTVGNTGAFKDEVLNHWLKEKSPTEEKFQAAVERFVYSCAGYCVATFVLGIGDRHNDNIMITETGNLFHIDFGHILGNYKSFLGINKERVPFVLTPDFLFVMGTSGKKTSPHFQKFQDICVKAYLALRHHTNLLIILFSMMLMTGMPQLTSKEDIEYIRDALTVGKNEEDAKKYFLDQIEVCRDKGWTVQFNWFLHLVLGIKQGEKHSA

In general, IC50 refers to the concentration that gives 50% inhibition. Read a high IC50 as weaker potency in that assay. For the molecule `N#Cc1c(N)ncnc1N1CCC[C@H]1c1nc2cccc(Cl)c2c(=O)n1-c1cccc(NC(=O)Nc2ccccn2)c1`, the 50% inhibitory concentration (IC50) on PIK3CG (human) is 7.4 µM; against PIK3CD (Human), 49 nM; at PIK3CB (Human), 420 nM.
Turning to `C[C@H](Nc1ncnc(N)c1C#N)c1nc2cccc(Cl)c2c(=O)n1-c1cccc(NC(=O)Nc2cccnc2C(F)(F)F)c1`, the half-maximal inhibitory concentration (IC50) on PIK3CG (human) was 3.9 µM; against PIK3CD (Human), 11 nM; against PIK3CB (Human), 23 nM.
With `COCCNC(=O)Nc1cccc(-n2c([C@@H]3CCCN3c3ncnc(N)c3C#N)nc3cccc(Cl)c3c2=O)c1`, the half-inhibitory concentration (IC50) was 7.8 µM at PIK3CG (human), 38 nM against PIK3CD (Human) and 97 nM at PIK3CB (Human).
Molecule `CCNC(=O)Nc1ccc(Cl)c(-n2c([C@H](C)Nc3ncnc(N)c3C#N)nc3cccc(Cl)c3c2=O)c1` gave an IC50 at PIK3CG (human) of more than 10 µM.
As to `N#Cc1c(N)nc(N)nc1N1CCC[C@H]1c1nc2c(Cl)ccc(Cl)c2c(=O)n1-c1cccc(C(N)=O)c1`, the 50% inhibitory concentration (IC50) against PIK3CG (human) was 1.4 µM; against PIK3CD (Human), 2 nM; on PIK3CB (Human) it was 51 nM.
